# According to patent publication US9579364B2, “Methods for treating benign prostatic hypertrophy (BPH)” (New York University, priority 2002, dated 2017):
# Where “and” joins values, the source holds several entries; their conditions need not be identical. Equal values may be shown once. Marks after values point to notes of the source that are not given here. Numbered stars: 1 amine (or outer) side, 2 acyl side, 3 side chain; on linkers, the order of the positions; unused ones are H or OH. Square brackets hold non-standard residues; d marks the D form. Side chains are listed from the residue outwards. Peptide text beside a SMILES is read from it. * marks the point of attachment. Ethylenediamine = C(CN[*:2])N[*:1]; Hyp = O=C(O)[C@@H]1C[C@@H](O)CN1; Phg = N[C@H](C(=O)O)c1ccccc1; CO = O=C([*:1])[*:2]; Bn = c1ccc(C*)cc1
# How the values were obtained:
# [1] = system: prostate of intact 28 day old male mice; assay: PQ401 or SS14 treatment of intact 28 day old male mice: prostate; type: in vivo
# Protocol: To examine further the effect of various compounds on glandular and fibromuscular development of the prostate, somatostatin-14 (SS14, a native somatostatin) and an exemplary small molecule IGF-I receptor inhibitor PQ401 were assessed in a variety of animal models.
# (§1) In a first experimental approach, the effect of treatment of intact 28 day old male mice with vehicle or PQ401 (a small molecule IGF-I receptor specific inhibitor) or somatostatin-14 (SS14; a native somatostatin) was evaluated. PQ401 and SS14 inhibit IGF-I action. For these experiments, N=5 mice per group. The results of these experiments are presented below in Tables 7-10: […]
# [2] = PQ401 or SS14 treatment of intact 28 day old male mice: body weight; type: in vivo
# Protocol: as §1
# [3] = system: prostate of estradiol-treated male Wistar rats; assay: Estradiol-treated male Wistar rat model of BPH; type: in vivo; conditions: for mean gland size: difference not significant
# Excerpt: To evaluate further the efficacy of somatostatin 14 (SS-14) in the treatment of BPH and related urinary tract obstruction, the present inventors used an animal model system in which prostate hyperplasia, together with prostatitis is induced by administration of estradiol to male Wistar rats. The estradiol-treated Wistar rat animal model system was originally described by Robinette (1988, The Prostate 12:271-286; the content of which is incorporated herein in its entirety) as offering an animal model of the inflammation and fibromuscular growth observed in human BPH. Robinette also described the estradiol-treated Wistar rat animal model system as useful for identifying factors and/or xenobiotics that can inhibit or potentially reverse progression of prostatic fibromuscular proliferation. Wilson et al. (Exp Mol Pathol. 2004; 77:7-17; the content of which is incorporated herein in its entirety) also presented guidance pertaining to the estradiol-treated Wistar rat animal model system of Robinette, offering that chronic inflammation induced in the lateral prostate by estrogen treatment is accompanied later by fibromuscular proliferation, which correlates with the prevalence of chronic inflammation in BPH in men. To assay the therapeutic benefit of IGF-I inhibitors in an animal model system, the present inventors utilized the animal model system of Robinette (supra), as modified in accordance with standard methodology as set forth herein.
# Three month old Wistar rats were treated for 2 weeks with 1-cm long 0.078 i.d.×0.125 o.d. Silastic tubings filled with estradiol (E2). Another group of estradiol treated animals was also given SS-14 via Alzet pump implanted into the subcutaneous fat of the back, at a dosage of 15 μg/kg/hour. At the end of the treatment period animals were sacrificed and prostates removed en bloc. A total of four animals were analyzed per group.
# Prior to fixing and embedding, prostates were weighed. Bladder and coagulating glands were removed and the remaining tissues were embedded with urethral opening down. Blocks were then sectioned at 150 μm intervals.
# The effect on total area of prostate occupied by glands was also assessed. To determine whether SS-14 would have an inhibitory effect on the glandular component of the prostate, the area of the organ occupied by glands in transverse sections, including the urethra and cut at the level at which the width of the prostate was maximal, was measured. Gland area is expressed as it relates to the total area of the organ in transverse sections.
# The effect of SS-14 on the Fibromuscular Compartment surrounding the Urethra was also evaluated. To determine whether SS-14 reduced the fibromuscular component of the urethra, tissue sections were immunostained for smooth muscle α actin (αSMA). Each prostate was cut at 5 different levels, with 150 microns between each set of sections. The results of αSMA staining are shown in the photomicrographs depicted in FIG. 8; the whole urethra is indicated by circles and the surrounding fibromuscular layer by arrows.
# [4] = system: mammary gland; conditions: cited from earlier work
# [5] = system: patients suffering from acromegaly; conditions: acromegalic patients, 1 year, cited from earlier work
# [6] = system: prostate of castrated Ames dwarf mice; assay: IGFBP-1 inhibition of GH-induced prostate development in castrated Ames dwarf mice; type: in vivo; conditions: 10-wk-old castrated Ames dwarf mice, 7 d
# Protocol: To determine whether IGF-I inhibition could impair prostate development induced by GH-stimulated IGF-I and normal development in eugonadal animals, the effect of IGFBP-1 was tested in the following two models.
# Ames dwarf mice have impaired prostate development because they are deficient in GH. They are also deficient in prolactin, TSH, and gonadotrophins (Andersen et al., 1995, Dev Biol 172:495-503; the entire content of which is incorporated herein by reference). To determine if IGFBP-1 could prevent bGH-induced IGF-I action, 10-wk-old castrated Ames animals were treated with bGH with or without infusion of IGFBP-1 for 7 d. IGFBP-1 inhibited GH-induced fibromuscular and glandular development (Table 6).
# [7] = system: prostate of Lit/Lit dwarf animals; assay: bGH restoration of impaired prostate development in Lit/Lit dwarf animals; type: in vivo; conditions: Lit/Lit dwarf mice
# Protocol: These include transgenic mice overexpressing a GH antagonist (that binds to and inactivates GH receptors making the animals functionally deficient in GH), growth hormone releasing factor receptor (GHRH-R^−/−) knockout mice (Lit/Lit), and Ames (df/df) mice (Prop 1 Deficiency). Deficient prostate development in GH inhibitor overexpression animals was previously reported (see Ruan et al, Endocrinology 140:1984-1989, 1999). Analysis of development was determined by dissecting away the periprostatic fat and teasing the glandular structures from the connective tissue in a solution containing collagenase so that the entire glandular tree could be photographed for later structural analysis. Much the same as in the mice overexpressing the mutant growth hormone, the other GH deficient mice had significant impairment of prostate development (p<0.0002) including a reduction in the number of terminal duct tips (TDTs), the area of the prostate gland, the number of quaternary branches and the number of branch points (TABLE 3). Any differences in these GH deficient mice may in part be due to the fact that the different strains were not analyzed at exactly the same age (Lit/Lit 50 days old, Ames 47 days old and bGH transgenic 44 days of age). The n was also different which may have led to greater significance in the Lit/Lit mice.
# The fact that GH treatment was capable of restoring impaired prostate development in GH deficient mice was shown in an experiment on Lit/Lit dwarf animals. Groups of animals were treated with either bGH (100 μg over 7 days by Alzet pump) or vehicle. The prostates were then removed and examined as described above. Treatment with bGH increased the number of TDTs from a mean of 48 (controls) to 61 (treated) p=0.011, the area of the gland from 0.71 cm^2 to 1.12 (NS), quaternary branching from 35 to 44 (p<0.01) and branch points from 37 to 46 (p=0.011).
# [8] = system: prostate of IGF-I^(−/−) null male mice; assay: Restoration of prostate development in IGF-I(-/-) null male mice; type: in vivo
# Excerpt: That IGF-I was also found to be essential for full prostate development was shown in a series of experiments employing IGF-I^(−/−) null male mice.
# [9] = system: IGF-I; assay: IGF-I by RIA in homogenates of prostate glands after bGH; type: in vivo; conditions: 87 day old male mice, bGH 200 μg daily for 4 days; untreated 223
# Protocol: IGF-I, as measured by RIA, was detected in homogenates of prostate glands from 87 day old male mice (223 ng/5 prostates). When bGH (200 μg daily for 4 days) was administered IGF-I rose to 418-526 ng/5 prostates. Serum IGF-I was 494 ng/ml in normal male mice. The IGF-I in prostate was likely produced there because bGH increases IGF-I mRNA in prostate.
# [10] = system: prostate of intact wild-type male mice; assay: IGFBP-1 effect on prostate development in 4-wk-old intact wild-type male mice; type: in vivo
# Protocol: FIG. 7 depicts the effect of IGFBP-1 treatment on prostate structures in intact 28 day old male mice. After 7 d of treatment with IGFBP-1 or vehicle, prostate development in both fibromuscular and glandular compartments was analyzed. Effects on fibromuscular development (A), epithelial development (B), lumen size (C), total prostate area (D), and prostate weight (E) are shown. Effects of IGFBP-1 (compared with control) on cell division and programmed cell death are shown in representative photomicrographs (F) showing the effect of IGFBP-1 (lower row) on cell division (left) and apoptosis (right) compared with control animals (top row) Arrows point to Ki67 or TUNEL staining in stroma, and arrows point to those effects in glands. Magnification, 400×. Effects of Ki67 staining (G) for cell division (left) and effects on programmed cell death by TUNEL (right). WT, Wild type.
# Eugonadal intact mice. The effect of treatment with IGH3P-1 on prostate development in 4-wk-old intact wild-type male mice was also studied. When compared with saline-treated control animals, IGFBP-1 inhibited all fibromuscular development, epithelial development, lumen size, prostate area, and prostate weight (FIG. 7, A-E). IGFBP-1 inhibited cell division in the epithelial compartment, and increased apoptosis in both fibromuscular and epithelial compartments (FIGS. 7, F and G).
# [11] = 4-wk-old intact wild-type male mice (FIG. 7, F and G)
molecule,measurement,setting,value
"C[C@H](N)C(=O)NCC(=O)N[C@H]1CSSC[C@@H](C(=O)O)NC(=O)[C@H](CO)NC(=O)[C@H]([C@@H](C)O)NC(=O)[C@H](Cc2ccccc2)NC(=O)[C@H]([C@@H](C)O)NC(=O)[C@H](CCCCN)NC(=O)[C@H](Cc2c[nH]c3ccccc23)NC(=O)[C@H](Cc2ccccc2)NC(=O)[C@H](Cc2ccccc2)NC(=O)[C@H](CC(N)=O)NC(=O)[C@H](CCCCN)NC1=O [SS14, Somatostatin-14]",area of the Longitudinal muscle,"[1]; 28 day old male mice, controls 0.939",0.486 mm^2
same,total area of the Circular muscle,"[1]; 28 day old male mice, controls 1.322",0.438 mm^2
same,% Reduction of prostate weight,"[1]; intact 28 day old male mice, vs 28 day control",37%
same,Body weight,[2]; controls 26.9 ± 0.3,23.9 ± 0.3 gm
same,% Reduction of body weight,[2]; vs controls,11%
same,mean gland size,[3]; E2-treated Wistar rats,0.078 mm^2
same,"prostate weight of E2-treated rats, first set of experiments","[3]; vs control E2-treated rats (vehicle only), p=0.024",significant reduction
"C[C@]12CC[C@@H]3c4ccc(O)cc4CC[C@H]3[C@@H]1CC[C@@H]2O [E2, estradiol]","Weight of prostates, individual animals","[3]; 3 month old Wistar rats, E2 2 weeks, SS-14 15 μg/kg/hour by Alzet pump, Animal #1-#4",0.570 grams and 0.580 grams and 0.532 grams and 0.630 grams
same,MEAN WEIGHT of prostates,"[3]; 3 month old Wistar rats, E2 2 weeks, SS-14 15 μg/kg/hour, second set of experiments, p=0.019",0.578 grams
same,"Ratio between the prostate area occupied by glandular elements and the whole organ area in transverse sections, individual animals",[3]; E2-treated Wistar rats,0.8467 and 0.857 and 0.8758 and 0.8596
same,"Fibromuscular Layer Area of the urethra, MEAN AREA","[3]; E2-treated Wistar rats, αSMA immunostaining",2.938 mm2
same,"Fibromuscular Layer Area of the urethra, individual animals","[3]; E2-treated Wistar rats, αSMA immunostaining, Animal #1-#4",3.412 mm2 and 1.822 mm2 and 2.369 mm2 and 4.149 mm2
same,mean gland size,[3]; E2-treated Wistar rats,0.099 mm^2
same,"Ratio between the prostate area occupied by glandular elements and the whole organ area in transverse sections, AVERAGE","[3]; E2-treated Wistar rats, p=0.028",0.860
"NCCCC[C@@H]1NC(=O)[C@@H](Cc2c[nH]c3ccccc23)NC(=O)[C@H](c2ccccc2)NC(=O)[C@@H]2C[C@@H](OC(=O)NCCN)CN2C(=O)[C@H](Cc2ccccc2)NC(=O)[C@H](Cc2ccc(OCc3ccccc3)cc2)NC1=O [SOM230, pasireotide] (cyclo(F[Hyp]([CO-Ethylenediamine])[Phg][dW]KY(Bn)))",mammary development in rats,[4],prevent mammary development
same,IRS-1 phosphorylation in the mammary gland,[4]; rats,reduction
octreotide,circulating GH and IGF-I levels,[5]; in most of the patients treated,normalization
same,prostate volume,[5],reduction
"bGH: growth hormone (bGH) given to GH deficient mice by Alzet pump (protein, UniProt P01246 27-217, looked up) Somatotropin: AFPAMSLSGLFANAVLRAQHLHQLAADTFKEFERTYIPEGQRYSIQNTQVAFCFSETIPAPTGKNEAQQKSDLELLRISLLLIQSWLGPLQFLSRVFTNSLVFGTSDRVYEKLKDLEEGILALMRELEDGTPRAGQILKQTYDKFDTNMRSDDALLKNYGLLSCFRKDLHKTETYLRVMKCRRFGEASCAF",Epithelium,[6],"160.5 ± 4.0^c,d μm^2 (×10^3)"
same,Fibromuscular,[6],"253.4 ± 18.6^a,b μm^2 (×10^3)"
same,Lumen,[6],"274.7 ± 11.9^c,d μm^2 (×10^3)"
same,Total,[6],"688.6 ± 32.4^a,b μm^2 (×10^3)"
same,number of TDTs (mean),"[7]; bGH 100 μg over 7 days by Alzet pump, controls 48, p=0.011",61
same,area of the gland,"[7]; bGH 100 μg over 7 days, controls 0.71, NS",1.12 cm^2
same,quaternary branching,"[7]; bGH 100 μg over 7 days, controls 35, p<0.01",44
same,branch points,"[7]; bGH 100 μg over 7 days, controls 37, p=0.011",46
same,restoring impaired prostate development,[8],no effect
same,IGF-I in homogenates of prostate glands (RIA),[9],418-526 ng/5 prostates
"IGFBP-1: insulin-like growth factor binding protein, inhibitor of IGF-I action (protein, UniProt P08833 26-259, looked up) Insulin-like growth …: APWQCAPCSAEKLALCPPVSASCSEVTRSAGCGCCPMCALPLGAACGVATARCARGLSCRALPGEQQPLHALTRGQGACVQESDASAPHAAEAGSPESPESTEITEEELLDNFHLMAPSEEDHSILWDAISTYDGSKALHVTNIKKWKEPCRIELYRVVESLAKAQETSGEEISKFYLPNCNKNGFYHSRQCETSMDGEAGLCWCVYPWNGKRIPGSPEIRGDPNCQIYFNVQN",apoptosis in both fibromuscular and epithelial compartments (TUNEL),[10]; [11],increased
same,cell division in the epithelial compartment (Ki67),[10]; [11],inhibited
same,"fibromuscular development, epithelial development, lumen size, prostate area, and prostate weight","[10]; 4-wk-old intact wild-type male mice, 7 d, vs saline-treated control (FIG. 7, A-E)",inhibited
